The text below walks through data of publication PMC4076210, “Discovery of Novel AKT Inhibitors with Enhanced Anti-Tumor Effects in Combination with the MEK Inhibitor” (PLoS ONE, 2014).

Where two headings read alike, the source gives them in different places.

One experiment deals with T1, CaMKIδ(h) (Homo sapiens, UniProt Q8IU85).
T1 construct: purchased Millipore KinaseProfiler
In words: Kinase panel. Format: biochemical.

The target in a further experiment is T2, Fyn(h) (Homo sapiens, UniProt P06241).
T2 construct: purchased Millipore KinaseProfiler
In words: Kinase panel. The class given is biochemical.

In another experiment the target is T3, Lck(h) (Homo sapiens, UniProt P06239).
T3 construct: purchased Millipore KinaseProfiler
In words: Kinase panel. The class given is biochemical.

A further experiment concerns the target T4, PRAK(h) (Homo sapiens, UniProt Q8IW41).
T4 construct: purchased Millipore KinaseProfiler
T4 sequence (Q8IW41 1-473): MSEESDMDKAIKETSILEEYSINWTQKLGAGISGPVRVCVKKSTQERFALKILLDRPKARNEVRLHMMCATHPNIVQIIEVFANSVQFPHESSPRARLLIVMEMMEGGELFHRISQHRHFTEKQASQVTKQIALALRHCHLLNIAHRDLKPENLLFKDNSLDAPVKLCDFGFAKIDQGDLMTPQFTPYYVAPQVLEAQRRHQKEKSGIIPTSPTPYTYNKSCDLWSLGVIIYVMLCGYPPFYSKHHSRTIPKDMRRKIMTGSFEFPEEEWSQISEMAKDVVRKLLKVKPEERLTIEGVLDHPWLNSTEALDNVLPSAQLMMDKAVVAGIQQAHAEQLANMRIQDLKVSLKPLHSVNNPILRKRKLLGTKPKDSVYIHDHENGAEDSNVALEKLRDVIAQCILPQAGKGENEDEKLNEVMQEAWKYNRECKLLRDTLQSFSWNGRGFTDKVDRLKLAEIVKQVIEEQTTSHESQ
In words: Kinase panel. The class given is biochemical.

For the next experiment, the target named is T5, Syk(h) (Homo sapiens, UniProt P43405).
T5 construct: purchased Millipore KinaseProfiler
Nature of the experiment: Kinase panel. The class given is biochemical.

The target of a further experiment is T6, TAO2(h) (Homo sapiens, UniProt Q9UL54).
T6 construct: purchased Millipore KinaseProfiler
T6 sequence (Q9UL54 1-1235): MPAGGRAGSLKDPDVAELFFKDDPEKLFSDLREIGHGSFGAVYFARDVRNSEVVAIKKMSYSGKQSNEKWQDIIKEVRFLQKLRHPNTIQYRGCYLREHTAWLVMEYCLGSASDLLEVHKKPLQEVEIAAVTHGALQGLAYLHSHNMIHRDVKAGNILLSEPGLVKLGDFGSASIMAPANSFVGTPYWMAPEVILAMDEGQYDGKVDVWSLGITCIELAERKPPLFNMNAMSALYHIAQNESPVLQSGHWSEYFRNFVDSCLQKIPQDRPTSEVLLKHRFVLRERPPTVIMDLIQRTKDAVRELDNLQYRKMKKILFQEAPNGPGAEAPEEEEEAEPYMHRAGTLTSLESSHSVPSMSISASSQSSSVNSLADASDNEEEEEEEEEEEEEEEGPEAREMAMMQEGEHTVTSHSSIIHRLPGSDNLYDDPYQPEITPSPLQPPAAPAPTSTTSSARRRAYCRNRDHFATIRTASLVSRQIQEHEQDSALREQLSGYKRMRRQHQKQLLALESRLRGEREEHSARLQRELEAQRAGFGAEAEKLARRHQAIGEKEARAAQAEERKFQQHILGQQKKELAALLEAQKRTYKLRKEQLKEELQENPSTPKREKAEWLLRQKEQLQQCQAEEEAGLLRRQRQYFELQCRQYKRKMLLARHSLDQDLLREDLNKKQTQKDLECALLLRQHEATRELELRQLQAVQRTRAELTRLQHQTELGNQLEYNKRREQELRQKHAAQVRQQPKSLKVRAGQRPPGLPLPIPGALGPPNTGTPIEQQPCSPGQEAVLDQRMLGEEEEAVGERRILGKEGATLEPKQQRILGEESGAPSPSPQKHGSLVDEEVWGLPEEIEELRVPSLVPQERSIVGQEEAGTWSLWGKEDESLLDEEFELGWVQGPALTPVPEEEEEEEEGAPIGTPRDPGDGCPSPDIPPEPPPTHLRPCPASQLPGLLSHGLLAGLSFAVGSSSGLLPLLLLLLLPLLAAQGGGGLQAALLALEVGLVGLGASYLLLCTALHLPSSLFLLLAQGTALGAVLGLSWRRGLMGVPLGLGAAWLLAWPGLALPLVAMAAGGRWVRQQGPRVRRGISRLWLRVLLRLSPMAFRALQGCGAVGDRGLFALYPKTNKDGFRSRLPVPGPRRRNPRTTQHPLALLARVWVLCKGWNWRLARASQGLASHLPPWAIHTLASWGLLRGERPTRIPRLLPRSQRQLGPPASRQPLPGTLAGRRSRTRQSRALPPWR
Nature of the experiment: Kinase panel. The class given is biochemical.

For a further experiment, the target named is PKCη (Homo sapiens, UniProt P24723). In words: Kinase IC50 assay. Format: biochemical.
The test system of another experiment is pPRAS40 in BT474. In words: phospho-PRAS40 ELISA. The conditions noted are these: Homo sapiens, BT-474; BT474, mean ± std dev. Format: cell-based. The protocol: (§1) ELISA plates were prepared by coating with anti-GSK3β antibody (R&D Systems), and blocked with 5% Milk/0.1% Tween-20. Cells were seeded at 25,000 cells/96-well overnight and treated with DMSO or various concentrations of drug for 1 h. Cells were lysed in 20 mM Tris-HCl (pH 8.0), 137 mM NaCl, 2 mM EDTA, 10% glycerol and 1% Triton X-100 and lysates transferred to ELISA plates and incubated overnight. The plates were washed and incubated with rabbit anti-phospho-GSK3β (Ser9) antibody (R&D Systems) for 1 h. After washing, plates were developed using HRP-linked anti-rabbit IgG, and 3,3′,5,5′-tetramethylbenzidine as substrate. Absorption was measured in a microplate spectrophotometer at 450 nm. The phospho-PRAS40 ELISA followed similar methodology as above with the exception of using a commercially available PRAS40 (pThr246) kit (Biosource) and following manufacturers' instructions for the ELISA analysis.

Another experiment deals with pPRAS40 in LNCaP. In words: phospho-PRAS40 ELISA. The class given is cell-based. The settings on record: Homo sapiens, mean ± std dev. The procedure:
as §1

T3 sequence (P06239 whole entry): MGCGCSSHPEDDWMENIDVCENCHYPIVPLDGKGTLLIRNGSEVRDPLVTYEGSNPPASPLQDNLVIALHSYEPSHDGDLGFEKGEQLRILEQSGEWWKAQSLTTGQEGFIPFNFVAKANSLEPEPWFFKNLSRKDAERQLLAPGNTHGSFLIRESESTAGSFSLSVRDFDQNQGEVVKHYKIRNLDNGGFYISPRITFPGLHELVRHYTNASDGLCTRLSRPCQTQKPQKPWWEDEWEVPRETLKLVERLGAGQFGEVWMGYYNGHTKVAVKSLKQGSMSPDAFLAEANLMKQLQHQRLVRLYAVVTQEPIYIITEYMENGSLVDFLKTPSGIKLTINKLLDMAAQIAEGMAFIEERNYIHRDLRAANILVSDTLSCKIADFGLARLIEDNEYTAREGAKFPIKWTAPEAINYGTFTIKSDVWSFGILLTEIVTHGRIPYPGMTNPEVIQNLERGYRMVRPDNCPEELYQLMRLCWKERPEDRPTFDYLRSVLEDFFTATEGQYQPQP
T1 sequence (Q8IU85 whole entry): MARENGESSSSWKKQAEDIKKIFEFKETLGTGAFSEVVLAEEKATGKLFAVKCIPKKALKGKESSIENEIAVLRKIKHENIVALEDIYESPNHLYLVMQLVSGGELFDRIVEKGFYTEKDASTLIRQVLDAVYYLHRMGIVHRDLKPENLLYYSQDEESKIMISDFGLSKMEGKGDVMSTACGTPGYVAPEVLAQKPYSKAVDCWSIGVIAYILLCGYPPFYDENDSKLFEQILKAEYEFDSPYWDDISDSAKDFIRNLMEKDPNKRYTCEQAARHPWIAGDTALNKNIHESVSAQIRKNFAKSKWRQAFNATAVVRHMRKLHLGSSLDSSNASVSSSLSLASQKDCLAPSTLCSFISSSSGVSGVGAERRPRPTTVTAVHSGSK
T2 sequence (P06241 whole entry): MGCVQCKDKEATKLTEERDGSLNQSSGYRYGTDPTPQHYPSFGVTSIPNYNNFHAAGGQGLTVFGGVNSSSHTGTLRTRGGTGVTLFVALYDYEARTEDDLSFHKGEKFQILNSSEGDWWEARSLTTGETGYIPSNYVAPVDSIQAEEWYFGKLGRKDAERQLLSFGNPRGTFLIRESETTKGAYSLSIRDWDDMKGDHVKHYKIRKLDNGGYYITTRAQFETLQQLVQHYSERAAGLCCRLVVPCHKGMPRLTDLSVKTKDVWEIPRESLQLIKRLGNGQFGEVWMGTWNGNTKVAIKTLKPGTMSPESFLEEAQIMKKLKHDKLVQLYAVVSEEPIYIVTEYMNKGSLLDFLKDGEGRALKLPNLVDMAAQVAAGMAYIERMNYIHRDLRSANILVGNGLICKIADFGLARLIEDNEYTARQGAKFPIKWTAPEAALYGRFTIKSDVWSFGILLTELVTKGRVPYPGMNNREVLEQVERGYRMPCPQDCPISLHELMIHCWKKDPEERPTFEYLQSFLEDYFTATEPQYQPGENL
Sequence of PKCη (P24723 whole entry): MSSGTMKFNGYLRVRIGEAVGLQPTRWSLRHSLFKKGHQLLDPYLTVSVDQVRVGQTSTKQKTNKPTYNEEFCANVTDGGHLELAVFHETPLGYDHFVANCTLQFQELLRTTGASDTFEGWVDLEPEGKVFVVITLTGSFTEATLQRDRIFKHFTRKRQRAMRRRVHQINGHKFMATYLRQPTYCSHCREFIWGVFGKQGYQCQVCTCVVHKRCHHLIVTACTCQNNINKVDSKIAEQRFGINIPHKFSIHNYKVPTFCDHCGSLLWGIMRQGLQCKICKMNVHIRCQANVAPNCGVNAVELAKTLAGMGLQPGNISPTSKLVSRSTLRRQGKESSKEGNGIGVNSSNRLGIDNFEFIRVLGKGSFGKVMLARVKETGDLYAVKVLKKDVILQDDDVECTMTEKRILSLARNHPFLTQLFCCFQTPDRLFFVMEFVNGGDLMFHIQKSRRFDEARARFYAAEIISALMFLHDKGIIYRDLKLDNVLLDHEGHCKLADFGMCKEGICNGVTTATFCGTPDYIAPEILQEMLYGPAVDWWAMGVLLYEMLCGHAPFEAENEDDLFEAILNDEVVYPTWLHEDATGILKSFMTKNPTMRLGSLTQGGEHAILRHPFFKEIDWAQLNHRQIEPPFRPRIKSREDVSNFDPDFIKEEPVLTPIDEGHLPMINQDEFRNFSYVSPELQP

Take `Cn1ncc(Cl)c1-c1cc(C(=O)N[C@H](CN)Cc2cccc(F)c2)sc1Cl` [GSK2110183]: the inhibition at 0.5 µM against CaMKIδ(h) is 18%; on Fyn(h) it was -3%; against Lck(h), 7%; against PRAK(h), -35%; on Syk(h), 3%; on TAO2(h), -7%. Moreover, the inhibition at 10 µM is 78% against CaMKIδ(h); 12% at Fyn(h); 35% against Lck(h); -57% on PRAK(h); 39% at Syk(h); 12% on TAO2(h). Also, the results for the IC50 against PKCη, in the experiment with pPRAS40 in BT474 and in the experiment with pPRAS40 in LNCaP were 210 nM, 121 ± 40 nM and 104 ± 5 nM, respectively.

For the compound `Cn1ncc(Cl)c1-c1cc(C(=O)N[C@H](CN)Cc2ccc(F)c(F)c2)oc1Cl` [GSK2141795], the inhibition at 0.5 µM at CaMKIδ(h) (0.5 µM, read-out: % Inhibition) is 16%; at Fyn(h) (0.5 µM, read-out: % Inhibition) it was -8%; on Lck(h) (0.5 µM, read-out: % Inhibition) it was -18%; at PRAK(h) (0.5 µM, read-out: % Inhibition), 2%; on Syk(h) (0.5 µM, read-out: % Inhibition), -18%; at TAO2(h) (0.5 µM, read-out: % Inhibition) it was -5%. The inhibition at 10 µM on CaMKIδ(h) (10 µM, read-out: % Inhibition) is 84%; on Fyn(h) (10 µM, read-out: % Inhibition), 10%; on Lck(h) (10 µM, read-out: % Inhibition), 21%; at PRAK(h) (10 µM, read-out: % Inhibition) it was -17%; at Syk(h) (10 µM, read-out: % Inhibition), 35%; at TAO2(h) (10 µM, read-out: % Inhibition) it was -2%. In addition, the IC50 was 49 nM against PKCη, 39 ± 0.5 nM in the experiment on pPRAS40 in BT474 and 55 ± 2 nM in the experiment on pPRAS40 in LNCaP.
